According to patent US11472814B2, “Thienopyranones and furanopyranones as checkpoint inhibitors and modulators of anti-tumor immunity” (SignalRx Pharmaceuticals, Inc., priority 2017, dated 2022):
pIC50: −log10 of the molar value. Values joined by “and” are separate entries in the source; they are usually repeats but may differ in a detail not shown here. Equal entries are not always repeated. “Also recorded” adds a separate entry of the source.

Experiments:
CT26 tumors [1] = assay: CT26 tumor growth in immunodeficient NSG mice; assay type: in vivo; details: 3 mg/kg
Excerpt: (§1) We investigated the effect of Compound 3 on immune cell in vitro and on tumor growth in in vivo in immunocompetent syngeneic tumor models and the effects on the macrophage and T cell immune compartment in vivo by this compound. […] In order to distinguish whether Compound 3 blocks tumor growth due to its effect on immune cell compartment and not on tumor compartment, we tested the effect of this chemotype on CT26 tumor growth in immunodeficient NSG mice vs immunocompetent Balb/c mice. […] Compound 3 has combinatorial immune-oncologic activity in vivo to stimulate anti-cancer innate and adaptive immunity in well-defined accepted immune competent murine models for cancer immunotherapy.
(§2) Conclusion: this establishes effect of Compound 3 as immune-oncologically active agent in cancer immunotherapy. In immunocompetent mice with same tumor cell ino kculum Compound 3 inhibited CT26 tumor growth by 58% decrease in tumor volume. (n=x, p<0.001, t test).

T cells in LLC tumors = assay: Quantification of CD3+, CD4+ and CD8+ T cells in LLC tumors; assay type: in vivo, mice
Excerpt: Quantification of CD3+, CD4+ and CD8+ T cells in the LLC tumors treated with Compound 3 (n=3, *p<0.05, t test). Conclusion: Compound 3 decreased CD4+ cells by 50% and increased CD8+ T cells in the tumor compartment by 7% in vivo as compared to vehicle control treated mice.

PI3K γ = target: T1, PI3K γ (Homo sapiens, UniProt P48736); assay: PI3K gamma inhibition IC50 (Thermo Fisher); assay type: biochemical; details: 10-point curve
T1 construct: purchased Thermo Fisher Scientific-Biosciences Life Sciences Solutions, Madison, Wis; (contract assay service)
T1 sequence (P48736 whole entry): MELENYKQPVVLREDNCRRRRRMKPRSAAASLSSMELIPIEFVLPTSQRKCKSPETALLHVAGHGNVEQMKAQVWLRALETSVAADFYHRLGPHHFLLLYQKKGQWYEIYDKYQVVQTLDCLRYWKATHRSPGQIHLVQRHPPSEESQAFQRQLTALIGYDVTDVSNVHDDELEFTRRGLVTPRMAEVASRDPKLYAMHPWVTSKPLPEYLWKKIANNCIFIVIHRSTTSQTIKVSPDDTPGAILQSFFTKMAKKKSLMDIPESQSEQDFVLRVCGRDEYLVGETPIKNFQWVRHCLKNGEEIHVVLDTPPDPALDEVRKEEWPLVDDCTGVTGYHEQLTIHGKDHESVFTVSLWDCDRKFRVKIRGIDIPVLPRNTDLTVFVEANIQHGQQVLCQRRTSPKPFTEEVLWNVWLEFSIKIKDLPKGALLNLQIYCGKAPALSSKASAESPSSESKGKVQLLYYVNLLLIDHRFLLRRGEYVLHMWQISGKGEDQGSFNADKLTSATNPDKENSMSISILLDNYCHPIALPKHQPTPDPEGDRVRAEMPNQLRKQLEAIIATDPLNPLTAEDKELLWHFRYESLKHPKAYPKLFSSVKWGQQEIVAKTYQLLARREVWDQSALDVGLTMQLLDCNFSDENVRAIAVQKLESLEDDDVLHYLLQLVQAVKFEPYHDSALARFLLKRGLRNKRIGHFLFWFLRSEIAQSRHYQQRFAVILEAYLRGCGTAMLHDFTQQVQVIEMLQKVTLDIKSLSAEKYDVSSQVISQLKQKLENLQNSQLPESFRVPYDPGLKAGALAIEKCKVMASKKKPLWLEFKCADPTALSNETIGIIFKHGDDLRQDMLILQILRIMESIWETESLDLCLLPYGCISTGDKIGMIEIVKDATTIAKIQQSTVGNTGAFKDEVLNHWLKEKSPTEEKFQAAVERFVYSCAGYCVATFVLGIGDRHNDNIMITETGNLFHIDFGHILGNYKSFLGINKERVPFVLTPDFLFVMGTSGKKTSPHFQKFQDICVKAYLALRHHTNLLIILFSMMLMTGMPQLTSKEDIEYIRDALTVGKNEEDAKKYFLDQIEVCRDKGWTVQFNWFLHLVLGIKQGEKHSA
Excerpt: (§3) The inhibitory activity of a compound of the invention against PI3K and/or BRD4 and/or SYK and/or CDK4/6 can be readily determined using methods known to the skilled artisan, or by commercial vendors offering such services. […] In vivo, PI3K inhibition can be determined from target tissue biopsies by standard tissue processing to disrupt cells and then performing Western Blot analysis to determine the presence or absence of pAKT (substrate of PI3K) relative to a control sample. The activity of a compound of the invention as an inhibitor of a bromodomain-containing protein, such as a BET protein, such as BRD2, BRD3, BRD4, and/or BRDT, or an isoform or mutant thereof, may be determined in vitro, in vivo, or in a cell line. In vitro assays include assays that determine inhibition of bromodomain-containing proteins. Alternatively, inhibitor binding may be determined by running a competition experiment where a provided compound is incubated with a bromodomain-containing protein, such as a BET protein bound to known ligands, labeled or unlabeled. For example, bromodomain inhibition can be determined in vitro using Alpha Screen Technology (http://www.reactionbiologv.com/webapps/site/NewsPDFs/Bromodomain%20Assay %20Platform %20for %20Drug %20Screening %20and %20Discovery.pdf). In vivo bromodomain inhibition can be determined indirectly by evaluating the amount of protein present of proteins whose genes' transcription is influenced or controlled by the bromodomain protein, for example, the MYCN protein transcription is controlled by BRD4 (J. E. Delmore et al., Cell 2011, 146, 904-917; A. Puissant, Cancer Discov. 2013, 3, 308-323). Bromodomain inhibition may also be predicted by in silico modeling as described below in the Examples. Additionally, the company Promega offers a SYK luminescent assay to determine a compound's ability to inhibit the SYK protein (https://www.promega.com/-/media/files/resources/protocols/kinase-enzyme-appnotes/syk-kinase-assay-protocol.pdf?la=en).
(§4) Compounds of the invention were characterized for their ability to inhibit target proteins using third party vendors offering such services. PI3K alpha, gamma, and delta inhibition activity was determined by Thermo Fisher Scientific-Biosciences Life Sciences Solutions, Madison, Wis. The bromodomain protein inhibition (binding domain 1 and 2 of BRD4) as well as SYK inhibition was determined at Reaction Biology Corp., Malvern, Pa. […] The IC50 data (shown below in Table 5) was calculated from a 10-point curve and is expressed in nanomolar concentration (nM) rounded off to the nearest whole number. […]

BRD4-1 = target: T2, BRD4-1 (Homo sapiens, UniProt O60885); assay: Bromodomain protein inhibition IC50, binding domain 1 of BRD4 (Reaction Biology Corp.); details: 10-point curve
T2 construct: purchased Reaction Biology Corp., Malvern, Pa; (contract assay service)
Excerpt: as §3, §4

CT26 tumors [2] = assay: CT26 tumor growth in immunocompetent Balb/c mice; assay type: in vivo
Excerpt: as §1
Tumor volumes of CT26 inoculated subcutaneously in Balb/c mice treated with 3 mg/Kg Compound 3, or 200 ug anti-PDL1 or both. Conclusion: Compound 3 has greater antitumor immune activating activity as compared to anti-PDL1 monoclonal antibody treatment in this in vivo immune-oncology model. Compound 3 suppressed tumor growth by 88% in this model (n=6, p<0.001, t test) as compared to vehicle control treated mice.
as §2
(§5) In contrast to above data, Compound 3 has a marked significant inhibitory effect on CT26, LLC and MC38 tumor growth in immunocompetent murine models. Conclusion: this establishes effect of Compound 3 as immune-oncologically active agent in cancer immunotherapy. In immunocompetent mice with same tumor cell inoculum Compound 3 inhibited tumor growth by from 58-68%. p<0.001 in all experiments compared to vehicle control.

MC38 tumors = assay: MC38 tumor growth in immunocompetent murine model; assay type: in vivo; details: vs vehicle
Excerpt: as §1, §5

[3] = LLC tumor growth in immunocompetent WT mice; assay type: in vivo; details: CT26, LLC and MC38 in immunocompetent mice
Excerpt: as §1
Compound 3: a novel dual Syk/PI3K inhibitory chemotype: Combinatorial inhibition of Syk and PI3K increases anti-tumor innate and adaptive T cell immune response in vivo. Tumor volume of LLC inoculated subcutaneously in WT mice treated with 10 mg/Kg Compound 3 (n=9, ***p<0.0001, t test). Conclusion: Compound 3 suppressed tumor growth of LLC by 68% in this immunocompetent immune-oncology model system as compared to vehicle control treated mice.
In contrast to above data, Compound 3 has a marked significant inhibitory effect on CT26, LLC and MC38 tumor growth in immunocompetent murine models. Conclusion: this establishes effect of Compound 3 as immune-oncologically active agent in cancer immunotherapy. […]

PI3K α = target: T3, PI3K α (Homo sapiens, UniProt P42336); assay: PI3K alpha inhibition IC50 (Thermo Fisher); assay type: biochemical; details: 10-point curve
T3 construct: purchased Thermo Fisher Scientific-Biosciences Life Sciences Solutions, Madison, Wis; (contract assay service)
T3 sequence (P42336 whole entry): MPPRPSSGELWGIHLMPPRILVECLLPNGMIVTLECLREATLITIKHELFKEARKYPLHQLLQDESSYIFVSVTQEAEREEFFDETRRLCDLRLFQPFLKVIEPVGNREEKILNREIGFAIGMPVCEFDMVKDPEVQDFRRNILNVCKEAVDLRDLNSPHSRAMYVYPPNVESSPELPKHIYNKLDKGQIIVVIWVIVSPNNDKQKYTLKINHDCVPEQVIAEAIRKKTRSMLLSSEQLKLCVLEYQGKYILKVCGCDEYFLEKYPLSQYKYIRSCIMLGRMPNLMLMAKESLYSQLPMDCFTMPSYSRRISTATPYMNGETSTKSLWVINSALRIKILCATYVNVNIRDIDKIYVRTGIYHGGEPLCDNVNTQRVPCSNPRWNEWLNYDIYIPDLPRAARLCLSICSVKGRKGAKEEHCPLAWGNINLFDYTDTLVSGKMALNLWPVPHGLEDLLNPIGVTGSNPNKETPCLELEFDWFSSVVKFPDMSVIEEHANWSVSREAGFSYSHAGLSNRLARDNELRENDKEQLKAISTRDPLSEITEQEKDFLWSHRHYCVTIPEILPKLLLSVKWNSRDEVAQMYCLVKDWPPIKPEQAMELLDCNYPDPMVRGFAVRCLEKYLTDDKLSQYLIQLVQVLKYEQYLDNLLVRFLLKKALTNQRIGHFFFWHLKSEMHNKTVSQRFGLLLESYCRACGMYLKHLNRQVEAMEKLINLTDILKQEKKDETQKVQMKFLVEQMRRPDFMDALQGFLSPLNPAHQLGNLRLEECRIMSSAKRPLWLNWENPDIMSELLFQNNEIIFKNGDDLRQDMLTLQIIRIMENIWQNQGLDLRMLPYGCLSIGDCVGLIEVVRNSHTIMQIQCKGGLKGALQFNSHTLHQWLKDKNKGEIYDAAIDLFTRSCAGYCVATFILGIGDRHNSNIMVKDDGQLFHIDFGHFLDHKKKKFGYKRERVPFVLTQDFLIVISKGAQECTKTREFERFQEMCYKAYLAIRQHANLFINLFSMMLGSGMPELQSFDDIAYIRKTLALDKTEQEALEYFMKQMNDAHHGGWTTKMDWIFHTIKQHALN
T3 sequence (P27986 whole entry partner): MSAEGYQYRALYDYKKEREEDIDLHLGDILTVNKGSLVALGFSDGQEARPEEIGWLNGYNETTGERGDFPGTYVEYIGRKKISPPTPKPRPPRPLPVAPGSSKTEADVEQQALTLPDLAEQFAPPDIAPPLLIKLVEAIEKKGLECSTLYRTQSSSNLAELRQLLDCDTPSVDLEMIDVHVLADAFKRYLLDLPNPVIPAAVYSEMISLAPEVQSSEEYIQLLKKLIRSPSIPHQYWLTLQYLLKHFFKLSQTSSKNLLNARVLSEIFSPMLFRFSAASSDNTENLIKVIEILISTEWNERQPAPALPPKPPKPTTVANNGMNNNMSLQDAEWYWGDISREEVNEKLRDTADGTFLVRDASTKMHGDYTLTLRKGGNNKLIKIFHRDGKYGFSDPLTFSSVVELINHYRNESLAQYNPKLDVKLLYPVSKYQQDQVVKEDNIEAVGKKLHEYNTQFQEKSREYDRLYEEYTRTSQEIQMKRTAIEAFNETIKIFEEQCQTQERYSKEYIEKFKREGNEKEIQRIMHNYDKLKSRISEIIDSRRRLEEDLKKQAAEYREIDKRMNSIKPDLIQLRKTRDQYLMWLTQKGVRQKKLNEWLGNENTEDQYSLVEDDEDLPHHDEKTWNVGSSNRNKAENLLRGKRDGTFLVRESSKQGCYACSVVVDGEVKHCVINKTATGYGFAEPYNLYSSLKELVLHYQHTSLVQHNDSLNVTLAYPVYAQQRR
Excerpt: as §3, §4

pIC50 (PI3K γ): 4.30 to 5.30 | pIC50 (BRD4-1): 5.30 to 6.00 | pIC50 (PI3K α): 6.00 to 7.00
SMILES: Cc1nn(-c2ccnc(Nc3ccc(-c4csc5c(=O)cc(N6CCOCC6)oc45)cc3)n2)cc1CN1CCC1 [Compound 3, 3-[p-(4-{4-[(1-Azetidinyl)methyl]-3-methyl-1H-pyrazol-1-yl}-2-pyrimidinylamino)phenyl]-5-morpholino-4-oxa-1-thia-7-indenone]
% Growth inhibition (CT26 tumors [1]; CT26 tumors in immunodeficient NSG mice, negative = increase in tumor growth): −33 ± 27% | CT26 tumor growth in NSG mice (CT26 tumors [1]; immunodeficient NSG mice): did not reduce CT26 tumor growth; also recorded: no significant effect | CD4+ T cells (% of CD3+ T cells) (T cells in LLC tumors; LLC tumor): 23 ± 7, % of CD3+ T cells | CD8+ T cells (% of CD3+ T cells) (T cells in LLC tumors; LLC tumor): 34 ± 1.1, % of CD3+ T cells | decrease of CD4+ cells (T cells in LLC tumors; LLC tumor, vs vehicle): 50% | increase of CD8+ T cells in the tumor compartment (T cells in LLC tumors; vs vehicle): 7% | CT26 tumor growth suppression (CT26 tumors [2]; Balb/c mice, 3 mg/Kg, n=6, vs vehicle): 88% | % Growth inhibition compared to control (CT26 tumors [2]; CT26 subcutaneous in Balb/c mice, 3 mg/Kg Compound 3, 200 ug anti-PDL1 or both, n=6): 88 ± 10% | % Growth inhibition of CT26 tumor (CT26 tumors [2]; immunocompetent Balb/c mice, vs vehicle): 58% and 58 +/− 10% | CT26 tumor growth, combination (CT26 tumors [2]; in combination with anti-PDL1 antibody): decrease in tumor growth | % Growth inhibition of MC38 tumor (MC38 tumors): 62 +/− 24% | tumor growth inhibition across models [3]: 58-68%
